According to ChEMBL document CHEMBL4507292 (2021):

Key:
[1] = target: Serine/threonine-protein kinase haspin (Homo sapiens) (UniProt Q8TF76); conditions: Compound concentration 1000.0 nM
[2] = system: Epidermal growth factor receptor (Homo sapiens), P00533 [G719S]; conditions: Compound concentration 1000.0 nM
[3] = target: Membrane-associated tyrosine- and threonine-specific cdc2-inhibitory kinase (Homo sapiens) (UniProt Q99640); conditions: Compound concentration 1000.0 nM
[4] = target: Serine/threonine-protein kinase VRK2 (Homo sapiens) (UniProt Q86Y07); conditions: Compound concentration 1000.0 nM
[5] = target: Receptor tyrosine-protein kinase erbB-4 (Homo sapiens) (UniProt Q15303); conditions: Compound concentration 1000.0 nM
[6] = target: Ribosomal protein S6 kinase alpha-5 (Homo sapiens) (UniProt O75582); conditions: Compound concentration 1000.0 nM
Chain of Ribosomal protein S6 kinase alpha-5 (Homo sapiens) (O75582 whole entry, looked up): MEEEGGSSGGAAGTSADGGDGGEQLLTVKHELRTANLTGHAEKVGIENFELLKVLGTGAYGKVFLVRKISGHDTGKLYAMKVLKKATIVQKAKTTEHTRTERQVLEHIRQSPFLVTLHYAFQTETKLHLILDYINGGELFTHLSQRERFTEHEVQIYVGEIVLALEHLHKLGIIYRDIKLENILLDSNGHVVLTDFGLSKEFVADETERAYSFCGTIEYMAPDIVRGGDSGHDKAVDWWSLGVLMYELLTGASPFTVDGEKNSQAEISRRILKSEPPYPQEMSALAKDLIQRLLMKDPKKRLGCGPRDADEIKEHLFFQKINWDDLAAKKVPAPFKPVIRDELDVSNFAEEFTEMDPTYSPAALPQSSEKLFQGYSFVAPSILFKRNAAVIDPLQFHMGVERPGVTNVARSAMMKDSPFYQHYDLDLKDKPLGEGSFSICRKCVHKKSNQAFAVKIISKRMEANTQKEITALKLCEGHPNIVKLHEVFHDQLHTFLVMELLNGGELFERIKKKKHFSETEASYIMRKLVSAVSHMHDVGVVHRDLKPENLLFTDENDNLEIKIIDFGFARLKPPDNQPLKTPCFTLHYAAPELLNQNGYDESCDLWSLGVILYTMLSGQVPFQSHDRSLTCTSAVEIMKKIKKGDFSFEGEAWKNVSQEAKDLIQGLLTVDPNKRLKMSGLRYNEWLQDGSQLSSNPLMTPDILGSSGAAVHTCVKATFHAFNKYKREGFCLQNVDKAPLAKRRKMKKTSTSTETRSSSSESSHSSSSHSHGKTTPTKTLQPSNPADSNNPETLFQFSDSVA

[7] = system: Tyrosine-protein kinase ABL1 (Homo sapiens), P00519 [F317I]; conditions: Compound concentration 1000.0 nM
[8] = target: Phosphatidylinositol 4,5-bisphosphate 3-kinase catalytic subunit alpha isoform (Homo sapiens) (UniProt P42336); conditions: Compound concentration 1000.0 nM
[9] = target: Serine/threonine-protein kinase ULK3 (Homo sapiens) (UniProt Q6PHR2); conditions: Compound concentration 1000.0 nM
[10] = target: Serine/threonine-protein kinase PAK 4 (Homo sapiens) (UniProt O96013); conditions: Compound concentration 1000.0 nM
[11] = target: T1, D(4) dopamine receptor (Homo sapiens) (UniProt P21917); conditions: Compound concentration 10.0 uM
T1 sequence (whole entry): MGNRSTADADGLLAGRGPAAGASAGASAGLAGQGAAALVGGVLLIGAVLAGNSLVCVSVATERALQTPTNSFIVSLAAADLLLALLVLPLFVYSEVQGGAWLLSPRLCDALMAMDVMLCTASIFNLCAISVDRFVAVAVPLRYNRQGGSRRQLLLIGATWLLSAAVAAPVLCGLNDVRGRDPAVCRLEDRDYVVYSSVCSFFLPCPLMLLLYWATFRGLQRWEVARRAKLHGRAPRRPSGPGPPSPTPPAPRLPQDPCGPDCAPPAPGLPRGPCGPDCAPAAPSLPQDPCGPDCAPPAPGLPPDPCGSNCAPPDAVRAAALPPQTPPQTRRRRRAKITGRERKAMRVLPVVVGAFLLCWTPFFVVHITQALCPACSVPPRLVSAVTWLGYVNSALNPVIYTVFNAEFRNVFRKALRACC

[12] = target: Angiopoietin-1 receptor (Homo sapiens) (UniProt Q02763); conditions: Compound concentration 1000.0 nM
[13] = target: Ribosomal protein S6 kinase alpha-4 (Homo sapiens) (UniProt O75676); conditions: Compound concentration 1000.0 nM
Chain of Ribosomal protein S6 kinase alpha-4 (Homo sapiens) (O75676 whole entry, looked up): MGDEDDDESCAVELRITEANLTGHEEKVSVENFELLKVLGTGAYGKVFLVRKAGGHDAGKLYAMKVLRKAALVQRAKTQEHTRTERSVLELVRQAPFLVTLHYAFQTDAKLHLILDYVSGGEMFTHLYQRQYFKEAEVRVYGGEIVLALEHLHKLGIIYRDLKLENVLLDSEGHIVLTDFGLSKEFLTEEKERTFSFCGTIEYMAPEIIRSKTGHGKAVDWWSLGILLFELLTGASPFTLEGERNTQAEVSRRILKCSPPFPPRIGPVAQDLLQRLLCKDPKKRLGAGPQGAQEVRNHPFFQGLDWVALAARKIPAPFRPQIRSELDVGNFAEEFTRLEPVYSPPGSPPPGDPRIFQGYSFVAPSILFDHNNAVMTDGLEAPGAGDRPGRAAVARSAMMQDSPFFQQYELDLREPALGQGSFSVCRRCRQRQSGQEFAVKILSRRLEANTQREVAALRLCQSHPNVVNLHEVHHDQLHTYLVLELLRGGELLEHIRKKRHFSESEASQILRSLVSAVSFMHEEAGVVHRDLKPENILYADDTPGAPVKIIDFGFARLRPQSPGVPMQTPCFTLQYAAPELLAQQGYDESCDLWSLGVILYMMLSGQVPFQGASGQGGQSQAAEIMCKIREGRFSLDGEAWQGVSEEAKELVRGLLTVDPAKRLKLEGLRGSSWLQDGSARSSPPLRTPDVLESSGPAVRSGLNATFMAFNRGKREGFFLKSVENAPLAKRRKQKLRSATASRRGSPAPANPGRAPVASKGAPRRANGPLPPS

[14] = system: Receptor-type tyrosine-protein kinase FLT3 (Homo sapiens), P36888 [D835Y]; conditions: Compound concentration 1000.0 nM
[15] = target: Non-receptor tyrosine-protein kinase TYK2 (Homo sapiens) (UniProt P29597); conditions: Compound concentration 1000.0 nM
[16] = target: D(1A) dopamine receptor (Homo sapiens, UniProt P21728); test: GPCRScan assay: inhibition of D1; design: radioligand conc. used [nm] 0.6 – 1.3, parental cells HEKT
Chain of D(1A) dopamine receptor (P21728 whole entry): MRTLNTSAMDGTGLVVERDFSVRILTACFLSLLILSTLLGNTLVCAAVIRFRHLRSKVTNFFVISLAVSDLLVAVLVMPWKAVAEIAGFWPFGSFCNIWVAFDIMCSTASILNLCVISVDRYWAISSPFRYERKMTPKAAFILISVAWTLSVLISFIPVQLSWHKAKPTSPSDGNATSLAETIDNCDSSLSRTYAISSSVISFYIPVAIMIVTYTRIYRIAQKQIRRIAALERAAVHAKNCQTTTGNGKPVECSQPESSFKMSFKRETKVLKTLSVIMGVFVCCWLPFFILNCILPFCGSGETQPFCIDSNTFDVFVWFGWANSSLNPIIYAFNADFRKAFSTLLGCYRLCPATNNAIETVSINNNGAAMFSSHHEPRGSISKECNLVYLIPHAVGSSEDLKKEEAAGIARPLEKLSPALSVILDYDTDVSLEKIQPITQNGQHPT

[17] = target: Dual specificity tyrosine-phosphorylation-regulated kinase 1B (Homo sapiens) (UniProt Q9Y463); conditions: Compound concentration 1000.0 nM
[18] = target: Cyclin-dependent kinase 4 (Homo sapiens) (UniProt P11802); conditions: Compound concentration 1000.0 nM
Chain of Cyclin-dependent kinase 4 (Homo sapiens) (P11802 whole entry): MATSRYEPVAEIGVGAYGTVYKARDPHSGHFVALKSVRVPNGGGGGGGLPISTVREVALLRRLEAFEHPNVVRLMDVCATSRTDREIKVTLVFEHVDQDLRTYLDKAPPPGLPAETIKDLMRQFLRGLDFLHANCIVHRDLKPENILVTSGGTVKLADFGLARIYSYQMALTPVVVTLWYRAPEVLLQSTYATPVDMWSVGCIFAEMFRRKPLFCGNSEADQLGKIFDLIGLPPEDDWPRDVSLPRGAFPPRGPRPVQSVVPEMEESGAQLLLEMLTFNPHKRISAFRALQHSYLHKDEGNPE

[19] = target: BMP-2-inducible protein kinase (Homo sapiens) (UniProt Q9NSY1); conditions: Compound concentration 1000.0 nM
[20] = target: Cyclin-G-associated kinase (Homo sapiens) (UniProt O14976); conditions: Compound concentration 1000.0 nM
[21] = target: Tyrosine-protein kinase ZAP-70 (Homo sapiens) (UniProt P43403); conditions: Compound concentration 1000.0 nM
[22] = target: Insulin-like growth factor 1 receptor (Homo sapiens) (UniProt P08069); conditions: Compound concentration 1000.0 nM
[23] = target: Serine/threonine-protein kinase mTOR (Homo sapiens) (UniProt P42345); conditions: Compound concentration 1000.0 nM
[24] = target: Cyclin-dependent kinase 8 (Homo sapiens) (UniProt P49336); conditions: Compound concentration 1000.0 nM
[25] = target: Serine/threonine-protein kinase DCLK2 (Homo sapiens) (UniProt Q8N568); conditions: Compound concentration 1000.0 nM
[26] = target: Serine/threonine-protein kinase SIK3 (Homo sapiens) (UniProt Q9Y2K2); conditions: Compound concentration 1000.0 nM
[27] = system: Epidermal growth factor receptor (Homo sapiens), P00533 [L858R,T790M]; conditions: Compound concentration 1000.0 nM
[28] = target: Ephrin type-B receptor 1 (Homo sapiens) (UniProt P54762); conditions: Compound concentration 1000.0 nM
Chain of Ephrin type-B receptor 1 (Homo sapiens) (P54762 whole entry): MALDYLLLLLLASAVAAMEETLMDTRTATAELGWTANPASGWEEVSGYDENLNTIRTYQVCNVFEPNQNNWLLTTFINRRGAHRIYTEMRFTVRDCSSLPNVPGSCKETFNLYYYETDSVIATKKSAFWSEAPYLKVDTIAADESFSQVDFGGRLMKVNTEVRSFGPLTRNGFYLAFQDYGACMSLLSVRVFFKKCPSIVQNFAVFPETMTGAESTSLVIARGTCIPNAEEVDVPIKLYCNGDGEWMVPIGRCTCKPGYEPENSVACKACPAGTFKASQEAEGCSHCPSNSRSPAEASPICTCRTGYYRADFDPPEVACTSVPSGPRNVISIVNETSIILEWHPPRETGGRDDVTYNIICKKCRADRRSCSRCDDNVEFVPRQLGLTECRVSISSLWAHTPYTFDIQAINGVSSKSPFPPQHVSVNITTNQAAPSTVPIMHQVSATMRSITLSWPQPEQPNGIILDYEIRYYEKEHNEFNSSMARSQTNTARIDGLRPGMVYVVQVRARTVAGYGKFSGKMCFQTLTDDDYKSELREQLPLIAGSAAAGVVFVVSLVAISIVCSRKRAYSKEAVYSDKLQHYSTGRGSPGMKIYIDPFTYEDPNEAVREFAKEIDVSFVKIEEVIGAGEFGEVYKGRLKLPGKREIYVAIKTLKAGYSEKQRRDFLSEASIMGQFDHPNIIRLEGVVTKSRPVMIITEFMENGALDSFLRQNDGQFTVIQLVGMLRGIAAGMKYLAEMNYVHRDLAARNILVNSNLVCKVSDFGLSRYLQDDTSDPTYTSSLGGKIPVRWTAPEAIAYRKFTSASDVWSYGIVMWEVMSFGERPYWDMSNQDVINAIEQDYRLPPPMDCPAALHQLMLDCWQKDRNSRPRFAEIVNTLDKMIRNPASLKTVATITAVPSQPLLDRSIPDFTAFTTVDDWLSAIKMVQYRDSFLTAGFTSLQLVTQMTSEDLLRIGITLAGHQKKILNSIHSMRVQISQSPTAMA

[29] = target: Sigma intracellular receptor 2 (Homo sapiens, UniProt Q5BJF2); conditions: Compound concentration 10.0 uM
Chain of Sigma intracellular receptor 2 (Q5BJF2 whole entry): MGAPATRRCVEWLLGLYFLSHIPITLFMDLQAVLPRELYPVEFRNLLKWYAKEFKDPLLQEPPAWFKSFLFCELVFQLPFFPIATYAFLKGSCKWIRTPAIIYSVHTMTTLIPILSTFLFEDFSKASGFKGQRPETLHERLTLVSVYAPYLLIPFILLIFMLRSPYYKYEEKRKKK

[30] = target: Interferon-induced, double-stranded RNA-activated protein kinase (Homo sapiens) (UniProt P19525); conditions: Compound concentration 1000.0 nM
Chain of Interferon-induced, double-stranded RNA-activated protein kinase (Homo sapiens) (P19525 whole entry): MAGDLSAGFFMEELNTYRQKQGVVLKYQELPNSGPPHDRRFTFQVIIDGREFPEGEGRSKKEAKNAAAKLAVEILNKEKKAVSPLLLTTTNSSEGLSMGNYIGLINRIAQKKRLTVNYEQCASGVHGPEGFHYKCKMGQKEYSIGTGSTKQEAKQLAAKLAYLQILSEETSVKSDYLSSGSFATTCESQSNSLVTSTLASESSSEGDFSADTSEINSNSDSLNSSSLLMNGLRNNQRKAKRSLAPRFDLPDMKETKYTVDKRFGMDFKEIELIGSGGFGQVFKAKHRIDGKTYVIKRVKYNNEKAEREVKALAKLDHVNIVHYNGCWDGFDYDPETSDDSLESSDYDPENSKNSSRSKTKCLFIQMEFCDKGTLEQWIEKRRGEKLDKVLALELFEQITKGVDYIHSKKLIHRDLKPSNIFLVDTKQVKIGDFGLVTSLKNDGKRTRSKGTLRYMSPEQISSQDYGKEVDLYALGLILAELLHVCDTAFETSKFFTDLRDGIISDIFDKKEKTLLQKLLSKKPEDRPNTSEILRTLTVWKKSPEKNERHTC

[31] = system: Mast/stem cell growth factor receptor Kit (Homo sapiens), P10721 [A829P]; conditions: Compound concentration 1000.0 nM
Chain of Mast/stem cell growth factor receptor Kit (Homo sapiens), P10721 [A829P] (P10721 whole entry A829P): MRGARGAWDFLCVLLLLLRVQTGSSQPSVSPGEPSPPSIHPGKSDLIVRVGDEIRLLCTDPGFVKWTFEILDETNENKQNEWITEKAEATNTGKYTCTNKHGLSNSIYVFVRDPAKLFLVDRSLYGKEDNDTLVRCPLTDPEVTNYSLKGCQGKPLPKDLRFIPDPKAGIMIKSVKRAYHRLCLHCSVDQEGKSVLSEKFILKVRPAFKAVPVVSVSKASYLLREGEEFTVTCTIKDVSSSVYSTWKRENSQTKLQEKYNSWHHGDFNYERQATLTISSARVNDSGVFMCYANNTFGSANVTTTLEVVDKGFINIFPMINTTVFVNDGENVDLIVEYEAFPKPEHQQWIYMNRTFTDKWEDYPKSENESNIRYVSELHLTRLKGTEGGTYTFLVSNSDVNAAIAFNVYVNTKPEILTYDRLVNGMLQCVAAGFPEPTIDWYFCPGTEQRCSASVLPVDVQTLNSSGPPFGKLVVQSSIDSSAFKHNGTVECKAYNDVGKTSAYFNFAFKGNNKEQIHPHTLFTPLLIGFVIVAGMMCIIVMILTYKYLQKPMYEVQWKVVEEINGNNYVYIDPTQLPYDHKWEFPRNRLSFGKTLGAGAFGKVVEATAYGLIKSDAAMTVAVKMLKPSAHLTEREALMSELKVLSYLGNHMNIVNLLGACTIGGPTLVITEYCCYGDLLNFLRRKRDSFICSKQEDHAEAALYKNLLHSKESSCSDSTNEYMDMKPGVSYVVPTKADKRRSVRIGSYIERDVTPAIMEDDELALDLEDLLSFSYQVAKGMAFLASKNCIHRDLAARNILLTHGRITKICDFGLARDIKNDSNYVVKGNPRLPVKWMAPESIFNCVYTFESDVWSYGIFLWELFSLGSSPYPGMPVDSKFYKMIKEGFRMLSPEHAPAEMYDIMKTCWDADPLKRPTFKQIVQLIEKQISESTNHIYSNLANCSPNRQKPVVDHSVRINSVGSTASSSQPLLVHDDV

[32] = target: Mitogen-activated protein kinase kinase kinase 9 (Homo sapiens) (UniProt P80192); conditions: Compound concentration 1000.0 nM
[33] = target: T2, Alpha-2A adrenergic receptor (Homo sapiens) (UniProt P08913); conditions: Compound concentration 10.0 uM
T2 sequence (whole entry): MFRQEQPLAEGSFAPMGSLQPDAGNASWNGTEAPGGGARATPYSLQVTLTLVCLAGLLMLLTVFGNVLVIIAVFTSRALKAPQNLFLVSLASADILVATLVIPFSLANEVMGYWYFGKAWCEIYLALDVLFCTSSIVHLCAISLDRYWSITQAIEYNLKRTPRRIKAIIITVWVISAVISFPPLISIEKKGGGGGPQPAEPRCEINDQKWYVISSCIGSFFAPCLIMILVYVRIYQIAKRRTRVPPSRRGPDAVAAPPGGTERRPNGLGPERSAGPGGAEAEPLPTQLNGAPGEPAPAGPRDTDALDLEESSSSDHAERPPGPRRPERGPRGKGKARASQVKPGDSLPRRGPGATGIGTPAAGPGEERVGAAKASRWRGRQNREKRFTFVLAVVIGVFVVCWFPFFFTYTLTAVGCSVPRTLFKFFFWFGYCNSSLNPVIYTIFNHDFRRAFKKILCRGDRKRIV

| Structure (SMILES) | residual activity [1] | residual activity [2] | residual activity [3] | residual activity [4] | residual activity [5] | residual activity [6] | residual activity [7] | residual activity [8] | residual activity [9] | residual activity [10] | inhibition [11] | residual activity [12] | residual activity [13] | residual activity [14] | residual activity [15] | Ki [16] | residual activity [17] | residual activity [18] | residual activity [19] | residual activity [20] | also measured |
| --- | --- | --- | --- | --- | --- | --- | --- | --- | --- | --- | --- | --- | --- | --- | --- | --- | --- | --- | --- | --- | --- |
| Cc1c(C(=O)O)cc(-c2ccc(C3CCNCC3)cc2)c2ccc(-c3ccc(C(F)(F)F)cc3)cc12 [PPTN-NC] | 100% | 94% | 100% | 100% | 100% | 100% | 100% | 100% | 95% | 100% | 8.42% | 100% | 88% | 100% | 100% | 2.15 µM | 74% | 100% | 83% | 100% | residual activity [21]: 100%; residual activity [22]: 90%; residual activity [23]: 96%; residual activity [24]: 100%; residual activity [25]: 100%; residual activity [26]: 100%; residual activity [27]: 100%; residual activity [28]: 100%; inhibition [29]: 92.7%; residual activity [30]: 100%; residual activity [31]: 98%; residual activity [32]: 92%; inhibition [33]: 34.8% |
| O=C(O)c1cc(-c2ccc(C3CCNCC3)cc2)c2ccc(-c3ccc(C(F)(F)F)cc3)cc2c1 [PPTN] | 100% | 100% | 100% | 100% | 100% | 100% | 100% | 100% | 100% | 100% | 10.4% | 100% | 100% | 100% | 100% | 10 µM | 88% | 100% | 84% | 100% | residual activity [21]: 100%; residual activity [22]: 95%; residual activity [23]: 90%; residual activity [24]: 100%; residual activity [25]: 100%; residual activity [26]: 100%; residual activity [27]: 100%; residual activity [28]: 100%; inhibition [29]: 95.6%; residual activity [30]: 100%; residual activity [31]: 100%; residual activity [32]: 100%; inhibition [33]: 38.2% |
